17 compounds from US20170291890A1 (Epizyme, Inc., priority 2014, published 2017) can be followed below.

In the experiment the target is T1, KDM4A (Homo sapiens, UniProt O75164).
T1 construct: N-terminal His-tagged KDM4A^1-350 was purchased from BPS Biosciences; His (N); purchased BPS Biosciences
T1 sequence (O75164 1-350): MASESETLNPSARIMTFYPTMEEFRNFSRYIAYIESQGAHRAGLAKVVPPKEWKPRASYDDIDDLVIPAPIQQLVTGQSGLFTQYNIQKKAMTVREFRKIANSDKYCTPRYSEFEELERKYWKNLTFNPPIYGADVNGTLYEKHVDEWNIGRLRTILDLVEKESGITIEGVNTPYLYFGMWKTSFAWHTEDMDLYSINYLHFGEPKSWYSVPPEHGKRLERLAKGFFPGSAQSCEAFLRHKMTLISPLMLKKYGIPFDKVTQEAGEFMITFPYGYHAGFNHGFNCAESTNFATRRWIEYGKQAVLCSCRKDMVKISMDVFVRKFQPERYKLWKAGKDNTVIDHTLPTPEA
In words: KDM4A Assay (SAMDI mass spectrometry demethylase assay). It is filed as biochemical. Conditions: N-terminal His-tagged KDM4A 1-350; class symbols; read-out: 4A IC50. As for the experimental part:
N-terminal His-tagged KDM4A^1-350 was purchased from BPS Biosciences. Peptides were synthesized by BioPeptide and all other reagents were purchased from Sigma-Aldrich at the highest level of purity possible. Assays were performed in a 50 μL volume in 384-well V-bottom polypropylene microplates (Greiner) at 25° C. Optimized 1× assay buffer was 50 mM HEPES (pH=8.0), 100 μM sodium ascorbate, 20 mM NaCl, 10 μM ammonium iron sulfate, 1 mM tris(2-carboxyethyl)phosphine (TCEP), 0.002% Tween-20, and 0.005% BSG. For compound screening, 35 μL of KDM4A^1-350 (final concentration, f.c.=5 nM) was added using a Multidrop Combi and preincubated with 1 μL of test compound (f.c.=10 μM) for 30 minutes and subsequently 15 μL of peptide with the following sequence NH2-ARTKQTAR(Kme2)STGGKAPRKQLA(K-Ahx-Biotin)-amide (f.c.=600 nM) and 2-oxoglutarate (f.c.=5 μM) was added by Multidrop Combi to begin the reaction. Reactions proceeded for 120 minutes and were stopped by the addition of 5 μL of formic acid (f.c.=0.5%) using a Multidrop Combi and then analyzed by SAMDI Tech Inc.
SAMDI Tech analyzed all reactions using self-assembled monoloayer desorption/ionization technology as previously described (Gerard-Levin Z A, Scholle M D, Eisenberg A H, et al.: High-throughput screening of small molecule libraries using SAMDI mass spectrometry. ACS Comb Sci 2011; 13:347-350). Briefly, a 2 μL sample of the stopped demethylase reactions were transferred to a SAMDI array coated with 384 biotin-neutravidin spots using a 384-channel pipet station. The SAMDI arrays were incubated for 1 h in a humidified chamber, followed by washing of the surface with deionized ultra-filtered water (DIUF) and drying under nitrogen. A matrix of 30 mg/ml 2′,4′,6′-Trihydroxyacetophenone monohydrate (THAP) in acetone was applied using a TPP Mosquito 1.2 μL tip by dispensing 50 nL on each of the 384 spots on the array. SAMDI-MS was run using acquisition method ReflectorPositiveUTX. The % conversion of substrate to product was calculated using the AUC of the substrate and product peptide peaks.
An IC50 value was determined by contacting various concentrations of a test compound with one of the KDM4A, KDM4C or KDMSC enzyme constructs and plotting a dose-response curve which associates the amount of inhibition of the enzyme relative to the concentration of the test compound. From the curve, the IC50 value (which represents the concentration of the test compound necessary to inhibit maximal enzymatic activity by 50%) was determined. Additionally, the slope of the linear range of the plotted curve, which indicates the speed with which the curve rises between the minimum and maximum, was calculated.
In the case of `O=C(O)c1ccncc1Nc1nn(-c2ccccc2)cc1-c1ccccc1` [Compound 42, 3-((1,4-diphenyl-1H-pyrazol-3-yl)amino)isonicotinic acid], the IC50 was in the range of 100 to 1000 nM. On to `O=C(O)c1ccncc1Nc1c(-c2ccccc2)cnn1-c1ccccc1` [Compound 43, 3-((1,4-Diphenyl-1H-pyrazol-5-yl)amino)isonicotinic acid], for which the IC50 lay within 10000 to 100000 nM. For `O=C(O)c1ccncc1Nc1nn(CCN2CCC(F)(F)CC2)cc1-c1ccc(F)cc1` [Compound 45, 3-((1-(2-(4,4-difluoropiperidin-1-yl)ethyl)-4-(4-fluorophenyl)-1H-pyrazol-3-yl)amino)isonicotinic acid], the IC50 lay in the range of 100 to 1000 nM.

On to `O=C(O)c1ccncc1Nc1c(-c2ccc(F)cc2)cnn1CCN1CCC(F)(F)CC1` [Compound 46, 3-((1-(2-(4,4-difluoropiperidin-1-yl)ethyl)-4-(4-fluorophenyl)-1H-pyrazol-5-yl)amino) isonicotinic acid], for which the IC50 fell in the range of 1000 to 10000 nM. Consider `CN(C)CCCn1cc(-c2ccccc2)c(Nc2cnccc2C(=O)O)n1` [Compound 51, 3-((1-(3-(dimethylamino)propyl)-4-phenyl-1H-pyrazol-3-yl)amino) isonicotinic acid], for which the IC50 lay within 1 to 100 nM. Under `CN(C)CCCn1ncc(-c2ccccc2)c1Nc1cnccc1C(=O)O` [Compound 52, 3-((1-(3-(dimethylamino)propyl)-4-phenyl-1H-pyrazol-5-yl)amino) isonicotinic acid] stands 1000 to 10000 nM; under `Cc1c(-c2ccccc2)nn(C)c1Nc1cnccc1C(=O)O` [Compound 53, 3-((1,4-dimethyl-3-phenyl-1H-pyrazol-5-yl)amino)isonicotinic acid], 100 to 1000 nM; under `Cc1n[nH]c(-c2ccccc2)c1Nc1cnccc1C(=O)O` [Compound 55, 3-((5-methyl-3-phenyl-1H-pyrazol-4-yl)amino)isonicotinic acid], 1000 to 10000 nM. To `O=C(O)c1ccncc1Nc1cc(-c2ccccc2)nn1-c1ccncc1` [Compound 56, 3-((3-phenyl-1-(pyridin-4-yl)-1H-pyrazol-5-yl)amino) isonicotinic acid] belongs 100 to 1000 nM; to `O=C(O)c1ccncc1Nc1nn(CCN2CCC(F)(F)CC2)cc1C1CCCCC1` [Compound 57, 3-((4-cyclohexyl-1-(2-(4,4-difluoropiperidin-1-yl)ethyl)-1H-pyrazol-3-yl)amino)isonicotinic acid], 100 to 1000 nM; to `CNC(=O)c1ccc(-n2ncc(Nc3cnccc3C(=O)O)c2C)cc1` [Compound 58, 3-((5-methyl-1-(4-(methylcarbamoyl)phenyl)-1H-pyrazol-4-yl)amino) isonicotinic acid], 1 to 100 nM.

Regarding `CNC(=O)c1cccc(-n2ncc(Nc3cnccc3C(=O)O)c2C)c1` [Compound 59, 3-((5-methyl-1-(3-(methylcarbamoyl)phenyl)-1H-pyrazol-4-yl)amino) isonicotinic acid], the IC50 was 1 to 100 nM. On to `Cc1cc(Nc2cnccc2C(=O)O)nn1-c1ccccc1` [Compound 60, 3-((5-methyl-1-phenyl-1H-pyrazol-3-yl)amino)isonicotinic acid], for which the IC50 fell in the range of 100 to 1000 nM. Regarding `Cc1cc(Nc2cnccc2C(=O)O)n(-c2ccccc2)n1` [Compound 61, 3-((3-methyl-1-phenyl-1H-pyrazol-5-yl)amino) isonicotinic acid], the IC50 lay within 100 to 1000 nM. For the compound `Cc1cn(-c2ccccc2)nc1Nc1cnccc1C(=O)O` [Compound 62, 3-((4-methyl-1-phenyl-1H-pyrazol-3-yl)amino) isonicotinic acid], the IC50 lay in the range of 1 to 100 nM. `COc1ccccc1-n1cc(C)c(Nc2cnccc2C(=O)O)n1` [Compound 63, 3-((1-(2-methoxyphenyl)-4-methyl-1H-pyrazol-3-yl)amino) isonicotinic acid]: the IC50 lay within 100 to 1000 nM. For `CN(C)CCn1cc(-c2ccccc2)c(Nc2cnccc2C(=O)O)n1` [Compound 64, 3-((1-(2-(dimethylamino)ethyl)-4-phenyl-1H-pyrazol-3-yl)amino)isonicotinic acid], the IC50 lay in the range of 1 to 100 nM.

The term IC50 denotes the point on the concentration scale where inhibition reaches its midpoint.
